{"source": "paper doi:10.1101/171595v1", "about": "(biorxiv, 2017)", "tested_on": "HpaM", "conditions": "read-out: apparent Km; 50 mM PBS pH 7.0, 0.2 mM FAD, 5HPA as co-substrate, 25°C", "data": [{"smiles": "NC(=O)C1=CN([C@@H]2O[C@H](COP(=O)(O)OP(=O)(O)OC[C@H]3O[C@@H](n4cnc5c(N)ncnc54)[C@H](O)[C@@H]3O)[C@@H](O)[C@H]2O)C=CC1", "note": "[NADH]", "values": [{"measurement": "Km", "result": "37.8 ± 3.4", "unit": "µM"}]}]}
